# Results reported in US20040127403A1, “Methods for treating and preventing Gram-positive bacteremias” (priority 2002, published 2004).
# Experiments:
# Assay in all cases: MIC, NCCLS broth microdilution
# Type in all cases: cell-based
# E. faecalis A7789 Line-R = conditions: Enterococcus faecalis, A7789LINER
# Method in brief: (§1)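 Each MIC was measured in two broths, CAMHB and TSB, using the NCCLS microdilution procedure; 0.02% bovine serum albumin was added with ramoplanin.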
# E. faecalis ATCC51299 = conditions: Enterococcus faecalis, ATCC51299, E. faecalis ATCC51299
# Method in brief: as §1
# E. faecium 1836 = conditions: Enterococcus faecium, 1836, E. faecium 1836
# Method in brief: as §1
# E. faecium A-5960 Line-R = conditions: Enterococcus faecium, A5960LINER
# Method in brief: as §1
# E. faecium A2735 Syn-R = conditions: Enterococcus faecium, A2735SYNR
# Method in brief: as §1
# E. faecium A4192 Syn-R = conditions: Enterococcus faecium, A4192SYNR
# Method in brief: as §1
# E. faecium A5959 Line-R = conditions: Enterococcus faecium, A5959LINER
# Method in brief: as §1
# E. faecium A6345 Line-R = conditions: for MIC: Enterococcus faecium, A6345LINER, E. faecium A6345 Line-R
# Method in brief: as §1
# E. faecium A6349 Line-R = conditions: Enterococcus faecium, A6349LINER
# Method in brief: as §1
# E. faecium A6350 Line-R = conditions: Enterococcus faecium, A6350LINER
# Method in brief: as §1
# E. faecium ATCC700221 = conditions: Enterococcus faecium, ATCC700221, E. faecium ATCC700221
# Method in brief: as §1
# E. faecium UA210 = conditions: Enterococcus faecium, UA210, E. faecium UA210
# Method in brief: as §1
# E. gallinarum UA604 = conditions: Enterococcus gallinarum, GALLINARUM
# Method in brief: as §1
# S. aureus ATCC12600 MRSA = conditions: Staphylococcus aureus
# Method in brief: as §1
# S. aureus ATCC19636 MSSA = conditions: Staphylococcus aureus
# Method in brief: as §1
# S. aureus ATCC27659 MSSA = conditions: Staphylococcus aureus
# Method in brief: as §1
# S. aureus ATCC27660 MSSA = conditions: Staphylococcus aureus
# Method in brief: as §1
# S. aureus ATCC35556 MRSA = conditions: Staphylococcus aureus
# Method in brief: as §1
# S. aureus ATCC43300 MRSA = test system: S. aureus ATCC43300 MRSA
# Method in brief: as §1
# [1] = test system: S. aureus ATCC700699 MRSA/VISA
# Method in brief: as §1
# S. epidermidis ATCC12228 = conditions: Staphylococcus epidermidis, ATCC12228, S. epidermidis ATCC12228
# Method in brief: as §1
# S. epidermidis ATCC14990 = conditions: Staphylococcus epidermidis, ATCC14990, S. epidermidis ATCC14990
# Method in brief: as §1
# S. epidermidis ATCC35983 = conditions: Staphylococcus epidermidis, ATCC35983, S. epidermidis ATCC35983
# Method in brief: as §1
structure (smiles),measurement,setting,value
CN[C@H](CC(C)C)C(=O)N[C@H]1C(=O)N[C@@H](CC(N)=O)C(=O)N[C@H]2C(=O)N[C@H]3C(=O)N[C@H](C(=O)N[C@H](C(=O)O)c4cc(O)cc(O)c4-c4cc3ccc4O)[C@H](O)c3ccc(c(Cl)c3)Oc3cc2cc(c3O[C@@H]2O[C@H](CO)[C@@H](O)[C@H](O)[C@H]2O[C@H]2C[C@](C)(N)[C@H](O)[C@H](C)O2)Oc2ccc(cc2Cl)[C@H]1O [Vancomycin],MIC,E. faecalis A7789 Line-R; CAMHB,2 µg/mL
same,MIC,E. faecalis A7789 Line-R; TSB,2 µg/mL
same,MIC,"E. faecalis A7789 Line-R; Table 6, 1st",1 µg/mL
same,MIC,"E. faecalis A7789 Line-R; Table 6, 2nd",1 µg/mL
same,MIC,E. faecalis ATCC51299; CAMHB,> 16 µg/mL
same,MIC,E. faecalis ATCC51299; TSB,> 16 µg/mL
same,MIC,"E. faecalis ATCC51299; Table 6, 1st",> 16 µg/mL
same,MIC,"E. faecalis ATCC51299; Table 6, 2nd",32 µg/mL
same,MIC,E. faecium 1836; CAMHB,> 16 µg/mL
same,MIC,E. faecium 1836; TSB,> 16 µg/mL
same,MIC,"E. faecium 1836; Table 6, 1st",> 16 µg/mL
same,MIC,"E. faecium 1836; Table 6, 2nd",> 64 µg/mL
same,MIC,E. faecium A-5960 Line-R; CAMHB,> 16 µg/mL
same,MIC,E. faecium A-5960 Line-R; TSB,> 16 µg/mL
same,MIC,"E. faecium A-5960 Line-R; Table 6, 1st",> 16 µg/mL
same,MIC,"E. faecium A-5960 Line-R; Table 6, 2nd",> 64 µg/mL
same,MIC,E. faecium A2735 Syn-R; CAMHB,> 16 µg/mL
same,MIC,E. faecium A2735 Syn-R; TSB,> 16 µg/mL
same,MIC,"E. faecium A2735 Syn-R; Table 6, 1st",> 16 µg/mL
same,MIC,"E. faecium A2735 Syn-R; Table 6, 2nd",> 64 µg/mL
same,MIC,E. faecium A4192 Syn-R; CAMHB,> 16 µg/mL
same,MIC,E. faecium A4192 Syn-R; TSB,> 16 µg/mL
same,MIC,"E. faecium A4192 Syn-R; Table 6, 1st",> 16 µg/mL
same,MIC,"E. faecium A4192 Syn-R; Table 6, 2nd",> 64 µg/mL
same,MIC,E. faecium A5959 Line-R; CAMHB,> 16 µg/mL
same,MIC,E. faecium A5959 Line-R; TSB,> 16 µg/mL
same,MIC,"E. faecium A5959 Line-R; Table 6, 1st",> 16 µg/mL
same,MIC,"E. faecium A5959 Line-R; Table 6, 2nd",> 64 µg/mL
same,reference MIC for strains used for killing curve,"E. faecium A6345 Line-R; E. faecium A6345 Line-R. as printed, second row of Table 3",>64 µg/mL
same,reference MIC for strains used for killing curve,"E. faecium A6345 Line-R; E. faecium A6345 Line-R., first row of Table 3",>64 µg/mL
same,MIC,E. faecium A6345 Line-R; CAMHB,> 16 µg/mL
same,MIC,E. faecium A6345 Line-R; TSB,> 16 µg/mL
same,MIC,"E. faecium A6345 Line-R; Table 6, 1st",> 16 µg/mL
same,MIC,"E. faecium A6345 Line-R; Table 6, 2nd",> 64 µg/mL
same,MIC,"E. faecium A6349 Line-R; Table 6, 1st",> 16 µg/mL
same,MIC,"E. faecium A6349 Line-R; Table 6, 2nd",> 64 µg/mL
same,MIC,E. faecium A6350 Line-R; CAMHB,2 µg/mL
same,MIC,E. faecium A6350 Line-R; TSB,2 µg/mL
same,MIC,"E. faecium A6350 Line-R; Table 6, 1st",1 µg/mL
same,MIC,"E. faecium A6350 Line-R; Table 6, 2nd",1 µg/mL
same,MIC,E. faecium ATCC700221; CAMHB,> 16 µg/mL
same,MIC,E. faecium ATCC700221; TSB,> 16 µg/mL
same,MIC,"E. faecium ATCC700221; Table 6, 1st",> 16 µg/mL
same,MIC,"E. faecium ATCC700221; Table 6, 2nd",> 64 µg/mL
same,MIC,E. faecium UA210; CAMHB,> 16 µg/mL
same,MIC,E. faecium UA210; TSB,> 16 µg/mL
same,MIC,"E. faecium UA210; Table 6, 1st",> 16 µg/mL
same,MIC,"E. faecium UA210; Table 6, 2nd",> 64 µg/mL
same,MIC,E. gallinarum UA604; CAMHB,1 µg/mL
same,MIC,E. gallinarum UA604; TSB,2 µg/mL
same,MIC,"E. gallinarum UA604; Table 6, 1st",0.5 µg/mL
same,MIC,"E. gallinarum UA604; Table 6, 2nd",0.5 µg/mL
same,MIC,S. aureus ATCC12600 MRSA; CAMHB,2 µg/mL
same,MIC,S. aureus ATCC12600 MRSA; TSB,2 µg/mL
same,MIC,"S. aureus ATCC12600 MRSA; Table 6, 1st",1 µg/mL
same,MIC,"S. aureus ATCC12600 MRSA; Table 6, 2nd",1 µg/mL
same,MIC,S. aureus ATCC19636 MSSA; CAMHB,2 µg/mL
same,MIC,S. aureus ATCC19636 MSSA; TSB,> 16 µg/mL
same,MIC,"S. aureus ATCC19636 MSSA; Table 6, 1st",1 µg/mL
same,MIC,"S. aureus ATCC19636 MSSA; Table 6, 2nd",1 µg/mL
same,MIC,S. aureus ATCC27659 MSSA; CAMHB,1 µg/mL
same,MIC,S. aureus ATCC27659 MSSA; TSB,> 16 µg/mL
same,MIC,"S. aureus ATCC27659 MSSA; Table 6, 1st",1 µg/mL
same,MIC,"S. aureus ATCC27659 MSSA; Table 6, 2nd",1 µg/mL
same,MIC,S. aureus ATCC27660 MSSA; CAMHB,2 µg/mL
same,MIC,S. aureus ATCC27660 MSSA; TSB,2 µg/mL
same,MIC,"S. aureus ATCC27660 MSSA; Table 6, 1st",1 µg/mL
same,MIC,"S. aureus ATCC27660 MSSA; Table 6, 2nd",1 µg/mL
same,MIC,S. aureus ATCC35556 MRSA; CAMHB,1 µg/mL
same,MIC,S. aureus ATCC35556 MRSA; TSB,> 16 µg/mL
same,MIC,"S. aureus ATCC35556 MRSA; Table 6, 1st",1 µg/mL
same,MIC,"S. aureus ATCC35556 MRSA; Table 6, 2nd",1 µg/mL
same,MIC,"S. aureus ATCC43300 MRSA; S. aureus ATCC43300 MRSA/VISA, Table 6, 2nd",1 µg/mL
same,MIC,"S. aureus ATCC43300 MRSA; S. aureus ATCC43300 MRSA, TSB","2, 2 μg/ml"
same,MIC,S. aureus ATCC43300 MRSA; Staphylococcus aureus,2 µg/mL
same,MIC,"S. aureus ATCC43300 MRSA; Staphylococcus aureus, ATCC 43300 / MRSA / VISA",1 µg/mL
same,MIC,"[1]; S. aureus ATCC700699 MRSA/VISA, TSB","2, 2 μg/ml"
same,MIC,"[1]; S. aureus ATCC700699 MRSA/VISA, Table 6, 1st",2 µg/mL
same,MIC,"[1]; S. aureus ATCC700699 MRSA/VISA, Table 6, 2nd",2 µg/mL
same,MIC,[1]; Staphylococcus aureus,2 µg/mL
same,MIC,S. epidermidis ATCC12228; CAMHB,4 µg/mL
same,MIC,S. epidermidis ATCC12228; TSB,4 µg/mL
same,MIC,"S. epidermidis ATCC12228; Table 6, 1st",2 µg/mL
same,MIC,"S. epidermidis ATCC12228; Table 6, 2nd",2 µg/mL
same,MIC,S. epidermidis ATCC14990; CAMHB,4 µg/mL
same,MIC,S. epidermidis ATCC14990; TSB,4 µg/mL
same,MIC,"S. epidermidis ATCC14990; Table 6, 1st",2 µg/mL
same,MIC,"S. epidermidis ATCC14990; Table 6, 2nd",2 µg/mL
same,MIC,S. epidermidis ATCC35983; CAMHB,4 µg/mL
same,MIC,S. epidermidis ATCC35983; TSB,4 µg/mL
same,MIC,"S. epidermidis ATCC35983; Table 6, 1st",2 µg/mL
same,MIC,"S. epidermidis ATCC35983; Table 6, 2nd",2 µg/mL
